# In ChEMBL document CHEMBL3046452, “Synthesis and pharmacological evaluation of some novel 2-pyrazolines bearing benzenesulfonamide as anti-inflammatory and blood glucose lowering agents” (Med Chem Res, 2013):
# Experiments:
# [1] = tested on: Rattus norvegicus; assay: Anti-inflammatory activity in Rattus norvegicus Wistar albino (rat) assessed as inhibition of carrageenan-induced paw edema at 0.05 mmol/kg administered 30 min prior to carrageenan-challenge measured after 5 hr relative to control; type: functional
# [2] = tested on: Rattus norvegicus; assay: Antidiabetic activity in fasted glucose fed hyperglycemic normal Rattus norvegicus Wistar albino (rat) assessed as blood glucose level at 0.05 mmol/kg administered 30 min prior to glucose-challenge measured after 60 min (reference value: 126.5 +/- 3.8 mg/dl); type: functional
# [3] = tested on: Rattus norvegicus; assay: Anti-inflammatory activity in Rattus norvegicus Wistar albino (rat) assessed as inhibition of carrageenan-induced paw edema at 0.05 mmol/kg administered 30 min prior to carrageenan-challenge measured after 3 hr relative to control; type: functional
# [4] = tested on: Rattus norvegicus; assay: Ulcerogenic activity in fasted Rattus norvegicus Wistar albino (rat) at 0.15 mmol/kg , po measured after 6 hr; type: toxicity, organism-based; settings: in vivo
smiles,measurement,setting,value
NS(=O)(=O)c1ccc(N2N=C(c3cccc(O)c3)C[C@H]2/C=C/c2ccccc2)cc1,inhibition in vivo at 50 µmol/kg,[1],59.2%
same,Activity,[2],131 mg/dL
same,inhibition in vivo at 50 µmol/kg,[3],39.9%
NS(=O)(=O)c1ccc(N2N=C(c3cccc(O)c3)C[C@H]2c2ccco2)cc1,inhibition in vivo at 50 µmol/kg,[1],29.6%
same,Activity,[2],133 mg/dL
same,inhibition in vivo at 50 µmol/kg,[3],35.8%
NS(=O)(=O)c1ccc(N2N=C(c3cccc(O)c3)C[C@H]2c2c3ccccc3cc3ccccc23)cc1,inhibition in vivo at 50 µmol/kg,[1],77.7%
same,Activity,[2],136.6 mg/dL
same,Activity,[4],Non-toxic
same,inhibition in vivo at 50 µmol/kg,[3],59.8%
NS(=O)(=O)c1ccc(N2N=C(c3cccc(O)c3)C[C@H]2c2ccccc2)cc1,inhibition in vivo at 50 µmol/kg,[1],77.7%
same,Activity,[2],126.3 mg/dL
same,Activity,[4],Non-toxic
same,inhibition in vivo at 50 µmol/kg,[3],35.8%
NS(=O)(=O)c1ccc(N2N=C(c3cccc(O)c3)C[C@H]2c2ccc(Cl)cc2)cc1,inhibition in vivo at 50 µmol/kg,[1],51.8%
same,Activity,[2],134 mg/dL
same,inhibition in vivo at 50 µmol/kg,[3],19.2%
COc1ccc([C@@H]2CC(c3cccc(O)c3)=NN2c2ccc(S(N)(=O)=O)cc2)cc1,inhibition in vivo at 50 µmol/kg,[1],62.9%
same,Activity,[2],116.5 mg/dL
same,inhibition in vivo at 50 µmol/kg,[3],64.7%
Cc1ccc([C@@H]2CC(c3cccc(O)c3)=NN2c2ccc(S(N)(=O)=O)cc2)cc1,inhibition in vivo at 50 µmol/kg,[1],66%
same,Activity,[2],138.6 mg/dL
same,inhibition in vivo at 50 µmol/kg,[3],64.7%
NS(=O)(=O)c1ccc(N2N=C(c3cccc(O)c3)C[C@H]2c2ccc(O)cc2)cc1,inhibition in vivo at 50 µmol/kg,[1],77.7%
same,Activity,[2],121 mg/dL
same,Activity,[4],Non-toxic
same,inhibition in vivo at 50 µmol/kg,[3],64.7%
NS(=O)(=O)c1ccc(N2N=C(c3cccc(O)c3)C[C@H]2c2ccccc2Cl)cc1,inhibition in vivo at 50 µmol/kg,[1],70.3%
same,Activity,[2],121 mg/dL
same,inhibition in vivo at 50 µmol/kg,[3],32.6%
NS(=O)(=O)c1ccc(N2N=C(c3cccc(O)c3)C[C@H]2c2ccccc2O)cc1,inhibition in vivo at 50 µmol/kg,[1],55.5%
same,Activity,[2],133 mg/dL
same,inhibition in vivo at 50 µmol/kg,[3],35.4%
COc1ccc([C@@H]2CC(c3cccc(O)c3)=NN2c2ccc(S(N)(=O)=O)cc2)cc1OC,inhibition in vivo at 50 µmol/kg,[1],66.7%
same,Activity,[2],111 mg/dL
same,inhibition in vivo at 50 µmol/kg,[3],55.9%
COc1cc([C@@H]2CC(c3cccc(O)c3)=NN2c2ccc(S(N)(=O)=O)cc2)cc(OC)c1OC,inhibition in vivo at 50 µmol/kg,[1],74.4%
same,Activity,[2],94.6 mg/dL
same,inhibition in vivo at 50 µmol/kg,[3],51.9%
Cc1ccc(-c2cc(C(F)(F)F)nn2-c2ccc(S(N)(=O)=O)cc2)cc1 [CELECOXIB],inhibition in vivo at 50 µmol/kg,[1],82.2%
same,inhibition in vivo at 50 µmol/kg,[3],75.9%
Cc1ccc(S(=O)(=O)NC(=O)NN2CC3CCCC3C2)cc1 (configuration not stated) [GLICLAZIDE],Activity,[2],85.83 mg/dL
